# In PMC6100073, “Activation of Anthracene Endoperoxides in Leishmania and Impairment of Mitochondrial Functions” (Molecules : A Journal of Synthetic Chemistry and Natural …, 2018):
# How the values were obtained:
# [1] = test system: LtP; assay: EPR (CMH oxidation): superoxide formation in LtP; format: cell-based, Leishmania tarentolae; conditions: 20 µM AA or 100 µM other compounds, 500 × 10^6 LtP/mL, 400 µM CMH, DFO, DTPA, 5 min, 25 °C
# Description: To measure superoxide radical (O2^•−) formation induced by AcEPs in LtP, EPR spectroscopy was used. An aliquot of the cell broth was transferred into an Eppendorf tube that was centrifuged (Hettich Universal 16, 20 °C, 2000× g, 10 min). The supernatant was discarded, the cell pellet was resuspended in PBS and centrifuged again. After removal of the supernatant, the cell pellet was resuspended in a mixture of PBS, 15 mM glucose (PBS/Glu), DFO (100 µM), and DTPA (25 µM). […] The cell suspension was aliquoted. CMH was added as detection agent leading to a final concentration of 400 µM. After 5 min of incubation at 25 °C, the respective substance was added resulting in final concentrations of 20 µM antimycin A (AA) or 100 µM of AcEP1117, AcEP1118, AcEP1129, AcEP1130, Ac, and AQ. Samples containing LtP and CMH were used as negative control. Samples containing PBS/Glu and CMH were used as negative control as well. After 5 min of incubation at 25 °C with the respective substance, aliquots of 17 µL of the cell suspensions were aspirated into a PTFE tube (outer diameter 0.7 mm). The tube was transferred into the MD5 resonator of the EPR spectrometer. Immediately, the measurement was started using the following parameters: microwave frequency 9.684 GHz; microwave power 20 mW, modulation frequency 100 kHz; modulation amplitude 1 G; time constant 0.82 s; center field 3449 G; scan rate 14 G/min; sweep width 100 G; scan time 419 s; attenuation 2.52 × 10^4; and scans 5.
# [2] = test system: LtP; assay: EPR spin trapping (DMPO): activation of AcEPs by LtP; format: cell-based, Leishmania tarentolae; conditions: 500 µM compound, 2 × 10^9 LtP/mL, 40 mM DMPO, 15 min, no added iron
# Description: To detect the radicals derived from AcEPs in LtP, EPR experiments were performed using DMPO as spin trap. Aliquots of the cell broth were transferred into Sarstedt tubes that were centrifuged (20 °C, 1800× g, 10 min), and the supernatants were discarded. Then the cell pellets were resuspended in PBS and centrifuged again. After removal of the supernatants, the cell pellets were resuspended in a mixture of PBS containing glucose (15 mM), giving a final cell number of 2 × 10^9 LtP/mL. Aliquots (150 µL) were incubated in 1.5 mL Eppendorf tubes with aeration holes. The cells were incubated with DMPO (40 mM) for 5 min at 26 °C, and after addition of 500 µM of the respective substance (Asc, AcEP1117, AcEP1118, AcEP1129, AcEP1130, Ac or AQ), the samples were incubated for additional 15 min at 26 °C under constant agitation (agitation speed: 0.3 s^−1). Control samples containing LtP, LtP and DMSO (1.27%, v/v), or PBS/glucose alone were incubated with 40 mM DMPO under the same conditions. Cell samples containing DMPO that were treated with Asc served as positive control. Samples treated with Ac or AQ were used as negative controls. Subsequently, 50 µL of the samples were aspirated into glass capillaries and transferred in the MD5 resonator of the EPR spectrometer. The samples were measured immediately using the following instrument settings: microwave frequency 9.684 GHz; microwave power 20 mW, modulation frequency 100 kHz; modulation amplitude 2 G; time constant 0.164 s; center field 3449 G; scan rate 71 G/min; sweep width 100 G; scan time 84 s; attenuation 8.93 × 10^5; and scans 3.
# [3] = Xylenol orange assay: reaction of endoperoxides with Fe2+; conditions: 50 µM compound, 250 µM FeSO4, 125 µM xylenol orange, methanol/H2O (9:1 v/v)
# Description: Xylenol orange (XO) (125 µM) and butylated hydroxytoluene (4 mM) were dissolved in methanol/H2O (9:1, v/v). FeSO4 (25 mM) in 2.5 M H2SO4 was prepared immediately before use and added, giving a final concentration of 250 µM FeSO4 in the samples. An aliquot of 100 µL EP solution (final concentration of 50 µM) was transferred into a disposable 1.5 mL cuvette (BRAND, Wertheim, Germany), and 1 mL of the color reagent was added. […] At these time points, the OD difference of the sample at 560 nm and 650 nm was determined using a MS1501 UV-vis diode array spectrophotometer (Shimadzu, Japan). As reference, a mixture of methanol/H2O (9:1, v/v) was used. […] The slope of the reaction rate was calculated using an extinction coefficient of the complex of 1.5 × 10^4 M^−1 cm^−1.
# [4] = test system: LtP; assay: Uncoupling of LtP respiration in presence of oligomycin (OxoPlates); format: cell-based, Leishmania tarentolae; conditions: 38 µM Oligo
# Description: The uncoupling experiments using OxoPlates were carried out in analogy to oxygen consumption measurements of LtP. An oligomycin (Oligo) premix in aBHI was prepared leading to a final concentration of 38 µM oligomycin (Oligo). Each well of the second row was filled with 50 µL of aBHI. From the third row on, each well was filled with 50 µL of the Oligo premix and to the fourth row additional 50 µL Oligo premix was added. The respective amounts of the substances (Ac, AQ, AcEP1117, AcEP1118, AcEP1129, AcEP1130, CCCP) were added and a serial 1:2 dilution was performed. Measurements were carried out as described above. The oxygen consumption rates were normalized to the wells that contained only LtP. For each concentration measurements were done in triplicates.
smiles,measurement,setting,value
"CCCCCC[C@H]1C(=O)O[C@H](C)[C@H](NC(=O)c2cccc(NC=O)c2O)C(=O)O[C@@H](C)[C@@H]1OC(=O)CC(C)C [AA, antimycin A, reference compound]",CMH oxidation (superoxide radical formation) in LtP,[1],triggered additional CMH oxidation in LtP
"CC(C)C12C=CC(C)(CC1)OO2 (centres unmarked) [Asc, ascaridole, reference compound]",DMPO spin adduct formation in LtP (EPR),[2],showed DMPO spin adducts of carbon-centered radicals
same,Slope (nM·min^−1) Mean ± SD of XO/Fe^3+ complex formation,[3],608 ± 52 nM/min
"N#CC(C#N)=NNc1cccc(Cl)c1 [CCCP, carbonyl cyanide m-chlorophenylhydrazone]",uncoupling effect (recovery of O2 consumption in the presence of Oligo),[4]; 0.31–5.0 µM CCCP or 12.5–200.0 µM other compounds,a recovery of O2 consumption in the presence of Oligo was observed
"CC[C@H]1/C=C/C=C/C[C@@H](C)[C@H](O)[C@@](C)(O)C(=O)[C@@H](C)[C@H](O)[C@@H](C)C(=O)[C@@H](C)[C@H](O)[C@@H](C)/C=C/C(=O)O[C@@H]2[C@H](C)[C@H](CC1)O[C@]1(CC[C@H](C)[C@H](C[C@@H](C)O)O1)[C@H]2C [Oligo, oligomycin]",oxygen consumption rate compared to untreated LtP,[4]; 140 × 10^6 LtP/mL,about 60%
